From the NIST ThermoML archive (doi:10.1016/j.jct.2016.09.015) come the findings set out here.

Data set [1] in a line: Molar enthalpy of transition or fusion. Particulars: Crystal; DSC.
The conditions of data set [2]: Crystal; DTA.

± gives the expanded uncertainty stated by the source.

Take `C[C@@H]1O[C@@H](OC[C@H]2O[C@@H](Oc3c(-c4ccc(OCCO)c(OCCO)c4)oc4cc(OCCO)cc(O)c4c3=O)[C@H](O)[C@@H](O)[C@@H]2O)[C@H](O)[C@H](O)[C@H]1O` [Troxerutin]: the “Molar enthalpy of transition or fusion” value in data set [1] was determined as 7.44 ± 0.526 kcal/mol. Further, the Normal melting temperature in data set [2] was 168.68 ± 0.46 °C.
